# Assay results reported in PMC11420065 (Molecular Psychiatry, 2024).
# What was measured:
# [1] = test system: D-myo-inositol 1 monophosphate (IP1); assay: IP1 levels in frontal cortex of treated mice (IP-One HTRF); details: 1 h
# Protocol: C57BL/6 wild-type males, sourced from JAX farms, 11 weeks of age at the time of experiment, were housed in groups of up to five littermates with food and water ad libitum in a vivarium with a 12 h light/dark cycle at 23 °C. Animals were allowed to get accustomed to the vivarium at least 1 week prior to the experiment. […] All efforts were made to minimize animal suffering and the number of animals used.
# Briefly, frontal cortices were harvested and homogenized in a 10 µL per 1 mg of tissue solution consisting of 10% IP-One Gq Kit Lysis and Detection Buffer in Stimulation Buffer. The clarified homogenates (17,000 × g for 15 min) were plated in duplicate by sequential addition of 2 µL to a 18 µL mix of detection reagents in Lysis and Detection Buffer.
# The mice used in the studies came from the same colony and were split randomly between the experimental groups. The investigators were blinded to group allocation during compounds administration to mice. Data are presented as mean ± SEM of 5 mice for each treated group.
# Data are normalized in fold of IP1 production in vehicle-treated mice (n = 5 animals per treatment condition; one-way ANOVA followed by Dunnett’s post hoc: compared to vehicle at 1h: *p < 0.1 and **p < 0.01 compared to vehicle).
# human 5-HT2AR [2] = target: T1, human 5-HT2AR (Homo sapiens, UniProt P28223); assay: EMTA ebBRET biosensor, agonist mode, β-arrestin recruitment; details: baseline vs maximal response, words
# Protocol: (§1) For recruitment of the β-arrestins, cells were transfected with the receptor, β-arrestin1-RlucII or β-arrestin2-RlucII, GRK2 and rGFP-CAAX.
# (§2) For in vitro experiments, curves fitting was conducted using GraphPad Prism 9 (version 9.0.0). Concentration response curves were obtained using a three-parameter logistic nonlinear regression model and the results are expressed as mean ± SEM of at least three independent experiments. […] Ligand-promoted BRET (ΔBRET) was determined by subtracting the BRET ratio of the vehicle condition from the BRET ratio of the ligand-treated conditions.
# human 5-HT2AR [3] = target: T1, human 5-HT2AR; assay: EMTA ebBRET biosensor, agonist mode, Gαi/o/z family (Rap1GAP-RlucII/rGFP-CAAX); details: for Emax (%) ± SEM: normalized as % response of 5-HT, NA: no activity
# Protocol: as §1, §2
# human 5-HT2AR [4] = target: T1, human 5-HT2AR
# Protocol: as §1, §2
# human 5-HT2AR [5] = target: T1, human 5-HT2AR; assay: EMTA ebBRET biosensor, agonist mode, Gαq family (p63-RlucII/rGFP-CAAX); details: normalized as % response of 5-HT, NA: no activity
# Protocol: as §1, §2
# T1 sequence (P28223 whole entry): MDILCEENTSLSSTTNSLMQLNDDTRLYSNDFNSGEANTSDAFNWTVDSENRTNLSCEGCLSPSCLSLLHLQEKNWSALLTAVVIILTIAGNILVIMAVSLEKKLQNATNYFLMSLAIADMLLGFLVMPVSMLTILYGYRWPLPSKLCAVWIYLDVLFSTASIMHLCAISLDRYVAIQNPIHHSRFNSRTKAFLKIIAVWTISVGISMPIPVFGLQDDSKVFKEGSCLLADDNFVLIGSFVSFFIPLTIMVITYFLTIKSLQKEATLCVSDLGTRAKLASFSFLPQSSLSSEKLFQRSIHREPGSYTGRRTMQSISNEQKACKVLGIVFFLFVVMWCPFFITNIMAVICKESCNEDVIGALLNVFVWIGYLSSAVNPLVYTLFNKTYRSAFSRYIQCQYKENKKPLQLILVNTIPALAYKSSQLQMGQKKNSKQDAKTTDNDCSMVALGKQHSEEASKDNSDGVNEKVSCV
smiles,measurement,setting,value
"O=C1CCc2ccc(OCCCCN3CCN(c4cccc(Cl)c4Cl)CC3)cc2N1 [Aripiprazole, aripiprazole]",increase in IP1 levels compared to the vehicle condition,[1]; 2 mg/Kg i.p.,10.5 ± 1.6%
same,recruitment of β-arrestin1,human 5-HT2AR [2],very weak yet statistically significant recruitment
same,activation at Gαi1 and Gαz,human 5-HT2AR [3],very weak yet statistically significant activation
"CN(C)C(=O)N[C@H]1CC[C@H](CCN2CCN(c3cccc(Cl)c3Cl)CC2)CC1 [Cariprazine, cariprazine]",% inhibition ± SEM,human 5-HT2AR [4],> 50%
same,recruitment of β-arrestin1,human 5-HT2AR [2],did not
same,Emax (%) ± SEM,human 5-HT2AR [5]; Gα11,70.72 ± 4.97%
same,Emax (%) ± SEM,human 5-HT2AR [5]; Gα14,68.10 ± 3.05%
same,Emax (%) ± SEM,human 5-HT2AR [5]; Gα15,13.93 ± 0.53%
same,Emax (%) ± SEM,human 5-HT2AR [5]; Gαq,67.99 ± 4.29%
same,Emax (%) ± SEM,human 5-HT2AR [3]; Gαi1,12.72 ± 3.42%
same,Emax (%) ± SEM,human 5-HT2AR [3]; Gαi2,11.72 ± 2.50%
same,Emax (%) ± SEM,human 5-HT2AR [3]; Gαi3,16.05 ± 2.57%
same,Emax (%) ± SEM,human 5-HT2AR [3]; GαoA,11.59 ± 2.44%
same,Emax (%) ± SEM,human 5-HT2AR [3]; GαoB,4.32 ± 2.16%
same,Emax (%) ± SEM,human 5-HT2AR [3]; Gαz,9.02 ± 0.88%
same,activation at the Gαi/o/z family,"human 5-HT2AR [3]; agonist mode, baseline vs maximal response, words",did not show statistically significant activation
"Cc1nc2n(c(=O)c1CCN1CCC(c3noc4cc(F)ccc34)CC1)CCCC2 [Risperidone, risperidone]",reduction in IP1,"[1]; 3 mg/Kg i.p., vs vehicle",9.2 ± 1.2%
